The results in this text go back to PMC2375285, “Inhibition of all-TRANS-retinoic acid metabolism by R116010 induces antitumour activity” (British Journal of Cancer, 2002).

In one series the test system is CYP2B1/2. The series can be described thus: Testosterone 16β-hydroxylase in rat liver microsomes. As to conditions: Rat liver microsomes. The format is biochemical.
For the next series, the target named is T1, CYP2A1 (Rattus norvegicus, UniProt P11711).
T1 construct: hydroxylation of testosterone (CYP2C11, CYP2A1, CYP3A, CYP2B1/2) in rat liver microsomes; from tissue; host or cells: rat liver, microsomes
T1 sequence (P11711 1-492): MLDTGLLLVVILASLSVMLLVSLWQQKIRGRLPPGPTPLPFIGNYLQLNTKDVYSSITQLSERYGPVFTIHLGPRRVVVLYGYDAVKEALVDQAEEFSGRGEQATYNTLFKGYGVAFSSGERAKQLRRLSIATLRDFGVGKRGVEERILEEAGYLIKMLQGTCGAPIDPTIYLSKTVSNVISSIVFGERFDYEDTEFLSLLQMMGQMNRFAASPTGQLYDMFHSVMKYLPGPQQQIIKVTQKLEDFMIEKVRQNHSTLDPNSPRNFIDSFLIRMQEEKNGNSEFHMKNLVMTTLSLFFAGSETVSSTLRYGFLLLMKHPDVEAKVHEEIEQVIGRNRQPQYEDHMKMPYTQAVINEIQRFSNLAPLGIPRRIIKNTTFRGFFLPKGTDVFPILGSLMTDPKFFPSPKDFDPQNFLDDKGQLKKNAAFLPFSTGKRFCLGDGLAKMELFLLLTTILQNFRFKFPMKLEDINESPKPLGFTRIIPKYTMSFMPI
The series can be described thus: Testosterone 7α-hydroxylase in rat liver microsomes. The format is biochemical. To be noted: Rat liver microsomes.

Series [1] relates to RA metabolism in intact T47D cells. The series can be described thus: Microcolumn assay for RA metabolism in intact T47D cells. The class given is cell-based, human. As to conditions: intact T47D cells pretreated 16 h with 1 μM RA; 0.1 μM [3H]RA, 90 min; read-out: IC50 inhibition of RA metabolism. The procedure:
RA metabolism was quantitatively determined using the microcolumn assay as described previously ([Krekels et al, 1997]). […] Cells were then washed twice with culture medium, harvested and resuspended at 4×10^6 cells ml^−1. An aliquot of this cell suspension (450 μl) was incubated for 90 min in the presence of 0.1 μM [11, 12-^3H(N)]RA, after which 2 ml acetonitrile was added. After centrifugation for 10 min at 780 g, the resulting deproteinized supernatant was acidified with 2.5 ml of 40 mM acetic acid and applied to a 3 ml C18 Bond Elut LRC column (Varian, Harbor City, CA, USA; pretreated with 4 ml distilled water) under a vacuum of 127 mmHg using VAC ELUT SPS-24 and the effluent was collected. The column was eluted with 1 ml 40% acetonitrile and the effluent was collected in the same vial. Radioactivity in the collected effluent, containing the polar metabolites, was determined in a Packard Tri-carb 4530 liquid scintillation analyzer. Optiphase ‘Hi Safe II’ (Wallac, Milton Keynes, UK) was used as a scintillator. Data are presented as mean±s.d. of three or four independent experiments. The IC50-values were calculated by non-linear regression analysis using SigmaPlot 4.01 software.

In the next series the target is T2, CYP2C11 (Rattus norvegicus, UniProt P08683).
T2 construct: hydroxylation of testosterone (CYP2C11, CYP2A1, CYP3A, CYP2B1/2) in rat liver microsomes; from tissue; host or cells: rat liver, microsomes
T2 sequence (P08683 1-500): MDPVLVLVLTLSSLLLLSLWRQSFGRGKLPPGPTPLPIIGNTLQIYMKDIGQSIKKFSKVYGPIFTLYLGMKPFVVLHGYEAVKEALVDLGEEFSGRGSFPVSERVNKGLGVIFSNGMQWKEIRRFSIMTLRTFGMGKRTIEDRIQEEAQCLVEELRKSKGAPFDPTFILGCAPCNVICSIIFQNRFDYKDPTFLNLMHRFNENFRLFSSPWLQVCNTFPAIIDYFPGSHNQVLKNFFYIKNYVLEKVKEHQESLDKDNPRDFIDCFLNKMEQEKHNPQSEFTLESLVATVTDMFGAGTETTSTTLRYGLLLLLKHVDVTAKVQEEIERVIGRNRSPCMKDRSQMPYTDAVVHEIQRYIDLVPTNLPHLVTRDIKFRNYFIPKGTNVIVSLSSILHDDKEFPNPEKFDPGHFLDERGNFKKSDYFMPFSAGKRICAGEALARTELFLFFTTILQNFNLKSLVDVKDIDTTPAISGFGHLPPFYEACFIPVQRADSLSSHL
The series can be described thus: Testosterone 2α-hydroxylase in rat liver microsomes. The class given is biochemical. To be noted: Rat liver microsomes.

The subject of a further series is TA3-Ha mammary tumours. The series can be described thus: TA3-Ha mammary carcinoma model. As to conditions: for toxicity findings: at toxic dose: RA 5, R116010 5, liarozole fumarate 20 mg kg^−1; for therapeutic window: maximum tolerated dose versus lowest active dose, TA3-Ha model; for lowest active dose inhibiting TA3-Ha tumour growth: day 1 until day 21, tumour weight.

The next series concerns CYP3A. As to conditions: microsomes.
For the next series, the system named is T47D cells. The series can be described thus: T47D cell proliferation (MTT assay, 7 days). The format is cell-based, human. The procedure:
T47D cells were seeded in Falcon® 96-well cell culture plates (Life Technologies, Merelbeke, Belgium) at 2500 cells per well in a total volume of 150 μl. Cells were allowed to adhere to plastic for 24 h. Drugs and/or medium were added to a final volume of 200 μl (day 0). Cells were grown under these conditions for 7 days, with renewal of medium and drugs on days 2 and 5. On day 7, medium was renewed and 25 μl MTT-solution was added, and cells were further incubated for 2 h in a cell incubator. The medium was aspirated and 25 μl Sorensen glycine buffer (0.1 M glycine, 0.1 M NaCl; pH 10.5) was added together with 100 μl DMSO to solubilize the blue MTT-formazan product. […] Data are presented as mean±s.d. of three or four independent experiments. Within an experiment, the result of each experimental condition is the mean of six replicate wells. The IC50-values were calculated by non-linear regression analysis using SigmaPlot 4.01 software.

The target of the next series is T3, 17,20-lyase (CYP17) (Rattus norvegicus, UniProt P11715).
T3 construct: 17,20-lyase (CYP17) in rat testicular S10 fractions; from tissue; host or cells: rat testis, S10 fraction
T3 sequence (P11715 1-507): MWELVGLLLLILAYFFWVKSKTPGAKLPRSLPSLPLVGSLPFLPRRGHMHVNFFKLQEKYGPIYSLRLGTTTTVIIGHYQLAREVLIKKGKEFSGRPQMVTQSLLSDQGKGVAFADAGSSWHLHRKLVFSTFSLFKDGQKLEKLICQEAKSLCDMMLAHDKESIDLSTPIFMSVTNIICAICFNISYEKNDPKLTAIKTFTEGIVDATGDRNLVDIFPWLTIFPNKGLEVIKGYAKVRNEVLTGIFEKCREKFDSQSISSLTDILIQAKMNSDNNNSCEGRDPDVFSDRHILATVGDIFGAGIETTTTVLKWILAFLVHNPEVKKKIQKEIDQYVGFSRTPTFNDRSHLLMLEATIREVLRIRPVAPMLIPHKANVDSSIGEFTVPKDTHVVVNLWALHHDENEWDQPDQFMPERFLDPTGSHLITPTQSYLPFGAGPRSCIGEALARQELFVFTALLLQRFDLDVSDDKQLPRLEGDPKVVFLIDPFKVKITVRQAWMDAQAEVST
The series can be described thus: 17,20-lyase in rat testicular S10 fraction. The format is biochemical.

The nature of a further series: in vivo. As to conditions: mouse, po.

Method for 17,20-lyase (CYP17): Metabolism of RA by CYP26A1 was measured in microsomes of T47D human breast cancer cells that were pretreated for 16 h with 1 μM RA to induce RA metabolism. Microsomes were prepared exactly as described by [Han and Choi (1996)], and RA metabolism was measured as described by [Van Wauwe et al (1994)]. The conversion of androstenedione to estrone by aromatase (CYP19) in human placental microsomes, the conversion of 17-hydroxy-20-dihydroprogesterone to testosterone by 17,20-lyase (CYP17) in rat testicular S10 fractions, and the 2α-, 7α-, 6β-, and 16β-hydroxylation of testosterone (CYP2C11, CYP2A1, CYP3A, CYP2B1/2) in rat liver microsomes were carried out as described ([Vanden Bossche et al, 1990]).
Method for CYP2A1: (§1) The conversion of androstenedione to estrone by aromatase (CYP19) in human placental microsomes, the conversion of 17-hydroxy-20-dihydroprogesterone to testosterone by 17,20-lyase (CYP17) in rat testicular S10 fractions, and the 2α-, 7α-, 6β-, and 16β-hydroxylation of testosterone (CYP2C11, CYP2A1, CYP3A, CYP2B1/2) in rat liver microsomes were carried out as described ([Vanden Bossche et al, 1990]).
Method for CYP2B1/2: as §1
Method for CYP2C11: as §1
Method for CYP3A: as §1
Method for TA3-Ha mammary tumours: (§2) Cells (1.5×10^6) were injected intraperitoneally in syngeneic A/J mice. […] Each group consisted of 10 animals for experiments with R116010 and of six animals for experiments with RA. All treatments were performed by oral gavage. […] The control groups were given the vehicle 20% 4-OH-β-cyclodextrine in sterile saline. Mice were daily examined for adverse drug effects. At the end of the experiments, subcutaneous tumours were excised 24 h after the last treatment and weighed to validate the antitumoural effects of the treatment.
(§3) Data are represented as box plots showing median group value, 25/75th percentile, 10/90th percentile and outliers. Groups were statistically compared to the vehicle-treated groups using the Mann–Whitney U-test. Significance was defined at the level of P<0.05.
Method for in vivo: as §2, §3

For the molecule `Clc1cccc(C(c2ccc3[nH]cnc3c2)n2ccnc2)c1.Clc1cccc(C(c2ccc3[nH]cnc3c2)n2ccnc2)c1.O=C(O)/C=C/C(=O)O.O=C(O)/C=C/C(=O)O.O=C(O)/C=C/C(=O)O` (racemic) [liarozole-fumarate, ±-5-[(3-chlorophenyl)(1H-imidazole-1-yl)methyl]-1H-benzimidazole (E)-2-butenedioate (2:3), reference compound], the IC50 with CYP2B1/2 was 500 nM; at CYP2A1, greater than 10000 nM; in series [1], 1400 nM; against CYP2C11, 2900 nM; in the series with CYP3A it was 400 nM; against 17,20-lyase (CYP17), 110 nM. Further, the toxicity findings entry in the series on TA3-Ha mammary tumours was “hair loss and bone fractures”. The therapeutic window result in the series with TA3-Ha mammary tumours is listed as “no therapeutic window”. For the same molecule, the “lowest active dose inhibiting TA3-Ha tumour growth” value in the series with TA3-Ha mammary tumours (oral, twice daily) stood at 10 mg/kg. Besides, in the series with T47D cells (10 μM, compound alone), the “decrease of T47D cell proliferation by itself” value was “approximately 25%”. The “enhancement of the antiproliferative activity of RA” value in the series on T47D cells (liarozole-fumarate tested up to 10 μM, T47D cells) was “unable to enhance”.

`CC1=C(/C=C/C(C)=C/C=C/C(C)=C/C(=O)O)C(C)(C)CCC1` [RA, All-trans-retinoic acid]: the MTD in the series “in vivo” came to 5 mg/kg. Also, the “loss of body weight” value with TA3-Ha mammary tumours (RA 5 mg kg^−1, mice) is 5%. In the series on TA3-Ha mammary tumours, the toxicity findings entry was “hair loss, and impaired movement due to bone fractures”; the therapeutic window entry is “does not show a real therapeutic window”. Further, the “dose at which toxicity was observed” value with TA3-Ha mammary tumours (mice, oral, twice daily, toxicity related to hypervitaminosis A) was found to be 5 mg/kg. Also, the “lowest active dose inhibiting TA3-Ha tumour growth” value in the series with TA3-Ha mammary tumours (oral, twice daily) was determined as 2.5 mg/kg. In the series with T47D cells (Homo sapiens, T47D, 168 h, read-out: IC50 T47D cell proliferation), the IC50 turned out to be 2 ± 0.5 nM.
